For orientation: IC50 means the concentration that inhibits the measured activity by half.

The text below walks through data of PMC6916168, “Multifunctional Glycoconjugates for Recruiting Natural Antibodies against Cancer Cells” (Chemistry (Weinheim an Der Bergstrasse, Germany), 2019).

The target of the experiment is human anti-Rha IgM. Put plainly: Competitive ELISA: inhibition of human anti-Rha IgM binding to PAA-Rha coated wells. The note with it: indirect competitive ELISA; human serum 20 %; PAA-Rha coating 5 μg mL^−1; 1 h at 37 °C; Alexa-Fluor488 goat anti-human IgM (1:400), fluorescence Ex 488/Em 530 nm; average of three independent experiments; read-out: IC50, inhibition of binding of human anti-Rha IgM to Rha coated wells (monovalent control). As for the experimental part: We next performed enzyme‐linked immunosorbent assay (ELISA)‐type studies to evaluate the ability of glycoconjugates 3 and 6 to bind natural Abs. Microtiter plates were first coated with a commercial Rha‐functionalized poly[N‐(2‐hydroxyethyl)acrylamide] polymer (PAA‐Rha) and incubated with human serum, a source of anti‐Rha antibodies, then fluorescent goat anti‐human IgM and IgG. […] This observation is in good agreement with previous studies showing strong ratio variations of circulating antibodies in human sera.15, 16 A competitive assay was next performed with glycoconjugates 3 and 6 as inhibitors and Rha as the monovalent control (Figure 1). […]
The ability of the ABMs to recruit anti‐Rha antibodies present in human serum (HS) was evaluated by an indirect competitive ELISA binding study. […] The fluorescence has been measured by using an Omega BMG LABTECH plate reader (Ex: 488 nm/ Em: 530 nm). The percentage of binding inhibition of the human anti‐Rha IgM antibody to the rhamnose‐coated microplate was calculated by using the formula: inhibition (%)=((F max−F)/F max)×100. F max corresponds to the mean value of the higher fluorescence limit reached in the dilution series of each rhamnose conjugate whereas F is the fluorescence red for each concentration of the compound tested. The fluorescence values used in this formula were an average of triplicate experiments. […]

Consider `C[C@H](O)[C@H](O)[C@@H](O)[C@@H](O)C=O` [Rha, L‐rhamnose], for which the IC50 amounted to 1200 µM.
